Values of other authors as cited in PubChem BioAssay AID1259409 (Chemical Carcinogenesis Research Information System (CCRIS), 2018).

Tested on: rodent chemically induced tumor inhibition, incidence and multiplicity
Experiment: CCRIS tumor inhibitor studies
Conditions: Route [Inhibitor]: ORAL

O=[Se](O)O
tumour outcome (control, treated, inhibition, significance) (Carcinogen: N-METHYL-N-NITROSOUREA, 684-93-5, Dose [Inhibitor]: 5 MG IN DIET DAILY STARTING AT AGE 5 WK 2 WK PRIOR TO FIRST CARCINOGEN TREATMENT AND CONTINUING FOR DURATION OF STUDY (S, Species: HAMSTER, Strain/Sex: SYRIAN/MALE, Target Tissue: Type of Lesion: TRACHEA: NEOPLASM, Dose [Carcinogen]: 0.5% SOLUTION (PH 5) 1/WK FOR 12 WK, Promoter: NONE USED): 11/34 (32%), 11/31 (35%), -9%, not significant | tumour outcome (control, treated, inhibition, significance) (Carcinogen: N-METHYL-N-NITROSOUREA, 684-93-5, Dose [Inhibitor]: 5 MG/KG IN DIET DAILY STARTING 7 D AFTER CARCINOGEN TREATMENT AND CONTINUING FOR DURATION OF STUDY (STUDY DURATION: 90 D, Species: RAT, Strain/Sex: SPRAGUE-DAWLEY/FEMALE, Target Tissue: Type of Lesion: MAMMARY GLAND: ADENOCARCINOMA, Dose [Carcinogen]: 50 MG/KG BW IN 0.9% SALINE ONCE AT 50 D OF AGE, Promoter: NONE): 95%, 85%, 11%, not calculated | tumour outcome (control, treated, inhibition, significance) (Carcinogen: N-NITROSOBIS(2-OXOPROPYL)AMINE, 60599-38-4, Dose [Inhibitor]: 0, 4 PPM IN DRINKING WATER BEGINNING POST CARCINOGEN TREATMENT AND CONTINUING FOR 37 WK (STUDY DURATION: 40 WK), Species: HAMSTER, Strain/Sex: SYRIAN/FEMALE, Target Tissue: Type of Lesion: PANCREAS: ADENOCARCINOMA, Dose [Carcinogen]: 10 MG/KG 1/WK FOR 3 WK, Promoter: NONE USED): 11/28 (39%), 9/30 (30%), 23%, not calculated | tumour outcome (control, treated, inhibition, significance) (Carcinogen: NITROSOMETHYL-3-CARBOXYPROPYLAMINE, 61445-55-4, Dose [Inhibitor]: 0, 0.35 PPM IN DIET BEGINNING 1 WK PRIOR TO CARCINOGEN DOSE AND CONTINUED FOR DURATION OF STUDY (STUDY DURATION: LIFETIM, Species: RAT, Strain/Sex: F344/FEMALE, Target Tissue: Type of Lesion: BLADDER: TUMORS, Dose [Carcinogen]: 20 ML OF A 600 MG/L SOLUTION IN DRINKING WATER 5 D/WK FOR 28 WK, Promoter: NONE USED): 18/20 (90%), 18/20 (90%), 0%, not significant | tumour outcome (control, treated, inhibition, significance) (Carcinogen: NITROSOMETHYL-3-CARBOXYPROPYLAMINE, 61445-55-4, Dose [Inhibitor]: 0, 0.7 PPM IN DIET BEGINNING 1 WK PRIOR TO CARCINOGEN DOSE AND CONTINUED FOR DURATION OF STUDY (STUDY DURATION: LIFETIME, Species: RAT, Strain/Sex: F344/FEMALE, Target Tissue: Type of Lesion: BLADDER: TUMORS, Dose [Carcinogen]: 20 ML OF A 600 MG/L SOLUTION IN DRINKING WATER 5 D/WK FOR 28 WK, Promoter: NONE USED): 18/20 (90%), 20/20 (100%), -11%, not significant | tumour outcome (control, treated, inhibition, significance) (Carcinogen: NITROSOMETHYL-3-CARBOXYPROPYLAMINE, 61445-55-4, Dose [Inhibitor]: 0, 1.4 PPM IN DIET BEGINNING 1 WK PRIOR TO CARCINOGEN DOSE AND CONTINUED FOR DURATION OF STUDY (STUDY DURATION: LIFETIME, Species: RAT, Strain/Sex: F344/FEMALE, Target Tissue: Type of Lesion: BLADDER: TUMORS, Dose [Carcinogen]: 20 ML OF A 600 MG/L SOLUTION IN DRINKING WATER 5 D/WK FOR 28 WK, Promoter: NONE USED): 18/20 (90%), 20/20 (100%), -11%, not significant | tumour outcome (control, treated, inhibition, significance) (Carcinogen: NITROSOMETHYL-3-CARBOXYPROPYLAMINE, 61445-55-4, Dose [Inhibitor]: 0, 2.1 PPM IN DIET BEGINNING 1 WK PRIOR TO CARCINOGEN DOSE AND CONTINUED FOR DURATION OF STUDY (STUDY DURATION: LIFETIME, Species: RAT, Strain/Sex: F344/FEMALE, Target Tissue: Type of Lesion: BLADDER: TUMORS, Dose [Carcinogen]: 20 ML OF A 600 MG/L SOLUTION IN DRINKING WATER 5 D/WK FOR 28 WK, Promoter: NONE USED): 18/20 (90%), 17/20 (85%), 6%, not significant | tumour outcome (control, treated, inhibition, significance) (Carcinogen: NITROSOMETHYLCYCLOHEXYLAMINE, 5432-28-0, Dose [Inhibitor]: 0, 0.35 PPM IN DIET BEGINNING 1 WK PRIOR TO CARCINOGEN DOSE AND CONTINUED FOR DURATION OF STUDY (STUDY DURATION: LIFETIM, Species: RAT, Strain/Sex: F344/FEMALE, Target Tissue: Type of Lesion: ESOPHAGUS: TUMORS, Dose [Carcinogen]: 20 ML OF A 5 MG/L SOLUTION IN DRINKING WATER 5 D/WK FOR 28 WK, Promoter: NONE USED): 17/20 (85%), 17/20 (85%), 0%, not significant | tumour outcome (control, treated, inhibition, significance) (Carcinogen: NITROSOMETHYLCYCLOHEXYLAMINE, 5432-28-0, Dose [Inhibitor]: 0, 0.7 PPM IN DIET BEGINNING 1 WK PRIOR TO CARCINOGEN DOSE AND CONTINUED FOR DURATION OF STUDY (STUDY DURATION: LIFETIME, Species: RAT, Strain/Sex: F344/FEMALE, Target Tissue: Type of Lesion: ESOPHAGUS: TUMORS, Dose [Carcinogen]: 20 ML OF A 5 MG/L SOLUTION IN DRINKING WATER 5 D/WK FOR 28 WK, Promoter: NONE USED): 17/20 (85%), 17/20 (85%), 0% | tumour outcome (control, treated, inhibition, significance) (Carcinogen: NITROSOMETHYLCYCLOHEXYLAMINE, 5432-28-0, Dose [Inhibitor]: 0, 1.4 PPM IN DIET BEGINNING 1 WK PRIOR TO CARCINOGEN DOSE AND CONTINUED FOR DURATION OF STUDY (STUDY DURATION: LIFETIME, Species: RAT, Strain/Sex: F344/FEMALE, Target Tissue: Type of Lesion: ESOPHAGUS: TUMORS, Dose [Carcinogen]: 20 ML OF A 5 MG/L SOLUTION IN DRINKING WATER 5 D/WK FOR 28 WK, Promoter: NONE USED): 17/20 (85%), 16/20 (80%), 6%, not significant | tumour outcome (control, treated, inhibition, significance) (Carcinogen: NITROSOMETHYLCYCLOHEXYLAMINE, 5432-28-0, Dose [Inhibitor]: 0, 2.1 PPM IN DIET BEGINNING 1 WK PRIOR TO CARCINOGEN DOSE AND CONTINUED FOR DURATION OF STUDY (STUDY DURATION: LIFETIME, Species: RAT, Strain/Sex: F344/FEMALE, Target Tissue: Type of Lesion: ESOPHAGUS: TUMORS, Dose [Carcinogen]: 20 ML OF A 5 MG/L SOLUTION IN DRINKING WATER 5 D/WK FOR 28 WK, Promoter: NONE USED): 17/20 (85%), 18/20 (90%), -6%, not significant | tumour outcome (control, treated, inhibition, significance) (Carcinogen: NONE USED, Dose [Inhibitor]: 0.5 PPM IN DIET DAILY STARTING AT AGE 6 WK AND CONTINUING FOR DURATION OF STUDY (STUDY DURATION: 13 MO), Species: MOUSE, Strain/Sex: BALB/FEMALE, Target Tissue: Type of Lesion: MAMMARY GLAND: ADENOCARCINOMA, Promoter: NONE USED): 15/30 (50%), 8/30 (27%), 46%, p<0.05 | tumour outcome (control, treated, inhibition, significance) (Carcinogen: NONE USED, Dose [Inhibitor]: 2 PPM IN DIET DAILY STARTING AT AGE 6 WK AND CONTINUING FOR DURATION OF STUDY (STUDY DURATION: 13 MO), Species: MOUSE, Strain/Sex: BALB/FEMALE, Target Tissue: Type of Lesion: MAMMARY GLAND: ADENOCARCINOMA, Promoter: NONE USED): 15/30 (50%), 6/30 (20%), 60%, p<0.05 | outcome (Carcinogen: UV-B IRRADIATION, Dose [Inhibitor]: 0, 0.5 MG/KG DIET FOR 29 WK BEGINNING 1 WK PRIOR TO CARCINOGEN TREATMENT (STUDY DURATION: 29 WK), Species: MOUSE, Strain/Sex: SKH:HR-1/FEMALE, Target Tissue: Type of Lesion: SKIN: TUMOR, Dose [Carcinogen]: 90 MJ/CM2 3/WK FOR 20 WK, Promoter: NONE USED): 29, 17, 41%, p<0.05 | tumour outcome (control, treated, inhibition, significance) (Dose [Inhibitor]: 0, 3 PPM IN DRINKING WATER AD LIBITUM FOR DURATION OF STUDY (STUDY DURATION: 79 WK), Species: RAT, Strain/Sex: WISTAR/MALE, Target Tissue: Type of Lesion: LIVER: CARCINOMA, Dose [Carcinogen]: 126 UG/WK IN DRINKING WATER FOR 27 WK, Promoter: NONE USED): 61%, 0%, 100%, not calculated | tumour outcome (control, treated, inhibition, significance) (Dose [Inhibitor]: 0, 6 PPM IN DRINKING WATER AD LIBITUM FOR DURATION OF STUDY (STUDY DURATION: 79 WK), Species: RAT, Strain/Sex: WISTAR/MALE, Target Tissue: Type of Lesion: LIVER: CARCINOMA, Dose [Carcinogen]: 126 UG/WK IN DRINKING WATER FOR 27 WK, Promoter: NONE USED): 61%, 0%, 100%, not calculated
